Test results as given in patent US20240285580A1, “COMPOSITIONS AND METHODS FOR EXTENDED RELEASE CROMAKALIM THERAPY” (Qlaris Bio, Inc., priority 2021, published 2024).
Where a name gives a salt, the structure may show the parent alone.

How the values were obtained:
[1] = trials terminated; most likely due to poor bioavailability; cited from earlier work
[2] = test system: isolated rat mesenteric lymph vessels; details: cited from earlier work; for rhythmic contractions of isolated rat mesenteric lymph vessels: exposure to KATP channel openers
[3] = cited from earlier work
[4] = in vivo; cited from earlier work
KATP channels = details: membrane patches from rabbit mesenteric arterial smooth muscle cells, in the presence of ATP; cited from earlier work
CD31 and VE-Cadherin = assay: Expression of biomarker proteins for hyperemia and vessel integrity; details: compared to Y-27632, a Rho kinase inhibitor
Excerpt: Furthermore, the effect of levcromakalim on selected biomarkers for hyperemia and perturbations to vessel integrity has been established.

## CC1(C)Oc2ccc(C#N)cc2C(N2CCCC2=O)C1O (stereo not shown) [Cromakalim, cromakalim]
[1]
  outcome of human clinical trials: lack of activity
[2]
  rhythmic contractions of isolated rat mesenteric lymph vessels: progressively impaired
[2]; increasing concentrations, flow impaired by attenuating frequency and amplitude
  contractions of the vessels at increasing concentrations: ultimately abolished the contractions
[3]
  solubility in water: substantially insoluble in water
[4]
  effect on blood pressure: lower blood pressure
KATP channels
  increase of open-state probability (Popen) of single KATP channels: more than 9 fold

## CC1(C)Oc2ccc(C#N)cc2[C@@H](N2CCCC2=O)[C@@H]1O [Levcromakalim, levcromakalim]
CD31 and VE-Cadherin
  impact on expression of measured proteins indicative of tissue and vessel integrity: no significant impact

## CC1=NS(=O)(=O)c2cc(Cl)ccc2N1 [diazoxide]
[2]
  rhythmic contractions of isolated rat mesenteric lymph vessels: progressively impaired
[4]
  effect on blood pressure: lower blood pressure

## Nc1cc(N2CCCCC2)nc(N)[n+]1OS(=O)(=O)[O-] [minoxidil sulfate]
[2]
  rhythmic contractions of isolated rat mesenteric lymph vessels: progressively impaired
